pIC50: −log10 of the molar value.
What was measured:
[1] = target: Butyrylcholinesterase (Rattus norvegicus) (UniProt Q9JKC1); assay: Inhibition of rat serum butyrylcholinesterase using butyrylthiocholine iodide as substrate at 50 uM incubated for 15 mins by Ellman's method relative to control
Acetylcholinesterase [2] = target: T1, Acetylcholinesterase (Electrophorus electricus, UniProt O42275); assay: Inhibition of electric eel AChE using acetylthiocholine iodide as substrate incubated for 15 mins by Ellman's method
Acetylcholinesterase [3] = target: T2, Acetylcholinesterase (Homo sapiens, UniProt P22303); assay: Inhibition of human erythrocyte acetylcholinesterase using acetylthiocholine as substrate preincubated for 60 mins followed by substrate addition by Ellman's method
Acetylcholinesterase [4] = target: T2, Acetylcholinesterase
Cholinesterase [5] = target: T3, Cholinesterase (Homo sapiens, UniProt P06276); assay: Inhibition of human butyrylcholinesterase
Acetylcholinesterase [6] = target: T1, Acetylcholinesterase; assay: Inhibition of electric eel AChE using acetylthiocholine iodide as substrate pretreated for 5 mins followed by substrate addition and measured after 2 mins by Ellman's method
[7] = target: Amyloid-beta precursor protein (Homo sapiens) (UniProt P05067); assay: Inhibition of HFIP pretreated amyloid beta (1-42) (unknown origin) self aggregation at 10 uM incubated for 24 hrs by thioflavin T based fluorescence assay relative to control
Beta-secretase 1 [8] = target: T4, Beta-secretase 1 (Homo sapiens, UniProt P56817); assay: Inhibition human BACE1 expressed in baculovirus expression system using Panvera peptide as substrate preincubated for 60 mins followed by substrate addition and measured after 60 mins by spectrofluorometric assay
Acetylcholinesterase [9] = target: T2, Acetylcholinesterase; assay: Inhibition of human Acetylcholinesterase using acetylthiocholine as substrate preincubated for 20 mins followed by substrate addition by Ellman's method
Acetylcholinesterase [10] = target: T2, Acetylcholinesterase; assay: Inhibition of human AChE-induced amyloid beta 1 to 40 (unknown origin) aggregation at 100 uM by thioflavin-T fluorescence method relative to control
Cholinesterase [11] = target: T3, Cholinesterase; assay: Inhibition of human serum butyrylcholinesterase using butyrylthiocholine iodide as substrate preincubated for 20 mins followed by substrate addition by Ellman's method
Beta-secretase 1 [12] = target: T4, Beta-secretase 1; assay: Inhibition human BACE1 expressed in baculovirus expression system at 10 uM using Panvera peptide as substrate preincubated for 60 mins followed by substrate addition and measured after 60 mins by spectrofluorometric assay relative to control
Acetylcholinesterase [13] = target: T2, Acetylcholinesterase; assay: Inhibition of human acetylcholinesterase by Ellman's method
[14] = target: Amine oxidase [flavin-containing] B (Homo sapiens, UniProt P27338); assay: Inhibition of recombinant human MAO-B using p-tyramine as substrate preincubated for 15 mins followed by substrate addition and measured over 15 mins by Amplex red reagent/horseradish peroxidase coupled fluorescence assay
Acetylcholinesterase [15] = target: T5, Acetylcholinesterase (Bos taurus, UniProt P23795)
T5 sequence (P23795 whole entry): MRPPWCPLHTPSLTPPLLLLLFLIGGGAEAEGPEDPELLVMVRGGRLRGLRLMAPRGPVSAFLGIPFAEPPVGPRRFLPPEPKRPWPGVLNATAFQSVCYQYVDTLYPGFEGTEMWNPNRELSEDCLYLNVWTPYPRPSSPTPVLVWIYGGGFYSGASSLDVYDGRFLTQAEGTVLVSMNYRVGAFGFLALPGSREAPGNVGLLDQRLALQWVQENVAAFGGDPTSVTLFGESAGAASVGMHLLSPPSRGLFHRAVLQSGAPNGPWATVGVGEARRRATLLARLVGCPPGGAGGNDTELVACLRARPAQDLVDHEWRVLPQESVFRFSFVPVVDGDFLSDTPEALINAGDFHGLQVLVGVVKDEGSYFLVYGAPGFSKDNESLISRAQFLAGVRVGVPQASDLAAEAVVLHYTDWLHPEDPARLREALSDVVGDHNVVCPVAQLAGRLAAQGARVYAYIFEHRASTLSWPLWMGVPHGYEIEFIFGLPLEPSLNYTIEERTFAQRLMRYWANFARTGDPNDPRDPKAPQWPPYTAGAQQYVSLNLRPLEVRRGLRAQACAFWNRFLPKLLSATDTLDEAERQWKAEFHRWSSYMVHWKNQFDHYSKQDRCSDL
Description: Inhibition of bovine erythrocyte acetylcholinesterase using acetylthiocholine as substrate incubated for 15 mins by Ellman's method

Cholinesterase [16] = target: T3, Cholinesterase; assay: Inhibition of human plasma butyrylcholinesterase by Ellman's method
Acetylcholinesterase [17] = target: T2, Acetylcholinesterase; assay: biochemical
Description: Inhibition of human acetylcholinesterase expressed in HEK 293 cells using acetylthiocholine iodide as substrate by Ellman's method

Cholinesterase [18] = target: T6, Cholinesterase (Equus caballus, UniProt P81908); assay: Inhibition of equine serum BuChE using butyrylthiocholine iodide as substrate pretreated 60 mins followed by substrate addition by Ellman's method
Rattus norvegicus [19] = assay: In vivo inhibition of MAO-B in Sprague-Dawley rat at 26 mg/kg, po administered for 2 weeks by radioassay method relative to control; assay type: functional; details: 336 h
Rattus norvegicus [20] = assay: In vivo inhibition of MAO-A in Sprague-Dawley rat at 26 mg/kg, po administered for 2 weeks by radioassay method relative to control; assay type: functional; details: 336 h
Acetylcholinesterase [21] = target: T1, Acetylcholinesterase; assay: Inhibition of electric eel AChE using acetylthiocholine iodide as substrate pretreated followed by substrate addition and measured after 2 mins by Ellman's method
Cholinesterase [22] = target: T3, Cholinesterase; assay: Inhibition of human butyrylcholinesterase using butyrylthiocholine iodide as substrate pretreated followed by substrate addition and measured after 15 mins by Ellman's method
Homo sapiens = species on record: Homo sapiens; assay: Selectivity index, ratio of IC50 for human AChE to IC50 for human BuChE
Cholinesterase [23] = target: T6, Cholinesterase; assay: Inhibition of equine serum BuChE using butyrylthiocholine iodide as substrate pretreated followed by substrate addition and measured after 2 mins by Ellman's method
Acetylcholinesterase [24] = target: T2, Acetylcholinesterase; assay: Inhibition of human acetylcholinesterase using acetylthiocholine as substrate pretreated followed by substrate addition and measured after 15 mins by Ellman's method

T1 sequence (O42275 whole entry): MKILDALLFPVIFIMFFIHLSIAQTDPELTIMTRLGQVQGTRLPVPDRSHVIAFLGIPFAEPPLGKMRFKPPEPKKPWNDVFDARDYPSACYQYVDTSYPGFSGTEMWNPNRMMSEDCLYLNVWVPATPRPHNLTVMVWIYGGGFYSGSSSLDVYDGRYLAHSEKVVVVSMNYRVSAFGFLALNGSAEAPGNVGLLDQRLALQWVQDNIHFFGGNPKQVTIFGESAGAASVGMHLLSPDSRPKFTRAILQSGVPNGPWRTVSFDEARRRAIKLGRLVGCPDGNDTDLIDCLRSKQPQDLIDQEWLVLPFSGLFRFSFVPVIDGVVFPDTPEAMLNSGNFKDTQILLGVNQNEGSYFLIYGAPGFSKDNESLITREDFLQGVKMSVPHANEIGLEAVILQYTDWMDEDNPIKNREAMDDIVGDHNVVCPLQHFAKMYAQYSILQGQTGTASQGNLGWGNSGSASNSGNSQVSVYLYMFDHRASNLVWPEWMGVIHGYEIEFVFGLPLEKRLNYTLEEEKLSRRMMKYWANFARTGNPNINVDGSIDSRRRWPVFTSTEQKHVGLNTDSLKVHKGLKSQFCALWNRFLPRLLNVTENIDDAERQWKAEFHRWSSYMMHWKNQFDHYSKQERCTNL
T3 sequence (P06276 whole entry): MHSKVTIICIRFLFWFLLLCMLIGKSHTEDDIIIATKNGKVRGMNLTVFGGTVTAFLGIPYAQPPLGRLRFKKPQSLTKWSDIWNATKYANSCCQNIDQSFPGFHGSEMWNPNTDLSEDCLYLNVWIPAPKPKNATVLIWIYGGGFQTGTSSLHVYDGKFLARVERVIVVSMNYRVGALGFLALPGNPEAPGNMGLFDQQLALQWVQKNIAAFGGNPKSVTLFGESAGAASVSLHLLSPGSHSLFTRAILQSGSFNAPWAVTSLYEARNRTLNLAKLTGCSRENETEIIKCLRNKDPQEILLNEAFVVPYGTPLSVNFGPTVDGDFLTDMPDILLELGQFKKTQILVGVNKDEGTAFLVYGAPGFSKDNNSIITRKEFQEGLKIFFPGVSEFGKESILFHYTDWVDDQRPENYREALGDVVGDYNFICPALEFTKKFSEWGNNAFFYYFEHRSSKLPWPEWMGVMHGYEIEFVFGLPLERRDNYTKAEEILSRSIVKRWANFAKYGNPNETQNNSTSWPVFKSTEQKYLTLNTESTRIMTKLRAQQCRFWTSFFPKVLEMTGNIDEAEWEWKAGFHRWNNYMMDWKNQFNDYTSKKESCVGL
T2 sequence (P22303 whole entry): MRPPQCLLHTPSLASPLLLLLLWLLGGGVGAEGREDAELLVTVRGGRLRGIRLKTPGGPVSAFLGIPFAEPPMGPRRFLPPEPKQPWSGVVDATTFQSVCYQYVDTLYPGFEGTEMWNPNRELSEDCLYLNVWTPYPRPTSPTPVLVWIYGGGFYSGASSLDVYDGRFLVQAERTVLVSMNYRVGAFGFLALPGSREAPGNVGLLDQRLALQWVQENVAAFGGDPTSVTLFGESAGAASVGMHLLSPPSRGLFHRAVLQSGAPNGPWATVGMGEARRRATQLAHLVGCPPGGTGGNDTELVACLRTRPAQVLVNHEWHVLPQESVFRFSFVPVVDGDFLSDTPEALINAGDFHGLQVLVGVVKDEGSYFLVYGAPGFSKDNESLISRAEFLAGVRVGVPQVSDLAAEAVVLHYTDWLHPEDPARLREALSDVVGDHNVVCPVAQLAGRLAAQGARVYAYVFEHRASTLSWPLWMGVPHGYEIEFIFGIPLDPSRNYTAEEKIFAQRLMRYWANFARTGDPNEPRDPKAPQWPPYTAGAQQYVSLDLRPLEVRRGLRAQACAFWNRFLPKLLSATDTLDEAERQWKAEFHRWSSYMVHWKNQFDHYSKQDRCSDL
T6 sequence (P81908 whole entry): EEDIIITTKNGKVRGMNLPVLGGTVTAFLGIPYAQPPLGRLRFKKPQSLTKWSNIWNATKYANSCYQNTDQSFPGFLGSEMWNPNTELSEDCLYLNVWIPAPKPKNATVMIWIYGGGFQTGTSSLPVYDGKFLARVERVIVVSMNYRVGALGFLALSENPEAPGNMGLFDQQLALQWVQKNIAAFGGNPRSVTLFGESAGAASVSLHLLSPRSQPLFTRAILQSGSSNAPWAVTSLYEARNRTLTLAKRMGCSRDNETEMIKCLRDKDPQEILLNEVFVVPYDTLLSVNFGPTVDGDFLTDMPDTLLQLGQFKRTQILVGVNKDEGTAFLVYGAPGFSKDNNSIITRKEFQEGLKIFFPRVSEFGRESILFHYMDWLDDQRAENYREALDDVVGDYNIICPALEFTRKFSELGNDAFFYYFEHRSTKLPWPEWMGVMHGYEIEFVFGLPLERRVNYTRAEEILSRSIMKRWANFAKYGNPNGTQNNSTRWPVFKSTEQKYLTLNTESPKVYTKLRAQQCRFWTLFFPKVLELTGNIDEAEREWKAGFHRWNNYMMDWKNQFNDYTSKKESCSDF
T4 sequence (P56817 whole entry): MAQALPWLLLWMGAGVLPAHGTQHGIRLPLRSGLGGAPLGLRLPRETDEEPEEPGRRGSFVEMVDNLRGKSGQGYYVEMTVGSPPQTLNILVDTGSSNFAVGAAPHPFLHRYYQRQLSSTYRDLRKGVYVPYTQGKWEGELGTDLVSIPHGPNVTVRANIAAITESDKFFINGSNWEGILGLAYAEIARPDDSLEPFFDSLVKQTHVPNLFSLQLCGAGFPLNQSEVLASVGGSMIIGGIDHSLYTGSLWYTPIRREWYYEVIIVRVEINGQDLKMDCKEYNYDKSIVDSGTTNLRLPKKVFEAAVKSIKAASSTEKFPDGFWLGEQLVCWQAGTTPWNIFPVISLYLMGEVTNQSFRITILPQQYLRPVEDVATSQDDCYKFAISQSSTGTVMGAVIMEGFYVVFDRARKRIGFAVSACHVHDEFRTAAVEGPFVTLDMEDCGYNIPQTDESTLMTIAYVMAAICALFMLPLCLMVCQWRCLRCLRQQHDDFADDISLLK
Sequence of Amine oxidase [flavin-containing] B (P27338 whole entry): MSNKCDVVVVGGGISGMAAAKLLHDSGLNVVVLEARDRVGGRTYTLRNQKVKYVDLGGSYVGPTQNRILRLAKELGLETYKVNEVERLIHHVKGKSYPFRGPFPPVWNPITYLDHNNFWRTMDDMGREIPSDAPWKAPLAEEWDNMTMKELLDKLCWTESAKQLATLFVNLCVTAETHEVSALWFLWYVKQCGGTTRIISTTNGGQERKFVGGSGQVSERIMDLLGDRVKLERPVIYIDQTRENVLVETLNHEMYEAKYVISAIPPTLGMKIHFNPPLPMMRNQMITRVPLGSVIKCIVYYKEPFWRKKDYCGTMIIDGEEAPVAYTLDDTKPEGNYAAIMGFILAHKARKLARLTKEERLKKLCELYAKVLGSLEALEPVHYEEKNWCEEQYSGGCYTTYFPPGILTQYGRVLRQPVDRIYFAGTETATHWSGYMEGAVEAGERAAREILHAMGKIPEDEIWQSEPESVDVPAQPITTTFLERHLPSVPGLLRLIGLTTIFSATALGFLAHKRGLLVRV
Sequence of Amyloid-beta precursor protein (Homo sapiens) (P05067 whole entry): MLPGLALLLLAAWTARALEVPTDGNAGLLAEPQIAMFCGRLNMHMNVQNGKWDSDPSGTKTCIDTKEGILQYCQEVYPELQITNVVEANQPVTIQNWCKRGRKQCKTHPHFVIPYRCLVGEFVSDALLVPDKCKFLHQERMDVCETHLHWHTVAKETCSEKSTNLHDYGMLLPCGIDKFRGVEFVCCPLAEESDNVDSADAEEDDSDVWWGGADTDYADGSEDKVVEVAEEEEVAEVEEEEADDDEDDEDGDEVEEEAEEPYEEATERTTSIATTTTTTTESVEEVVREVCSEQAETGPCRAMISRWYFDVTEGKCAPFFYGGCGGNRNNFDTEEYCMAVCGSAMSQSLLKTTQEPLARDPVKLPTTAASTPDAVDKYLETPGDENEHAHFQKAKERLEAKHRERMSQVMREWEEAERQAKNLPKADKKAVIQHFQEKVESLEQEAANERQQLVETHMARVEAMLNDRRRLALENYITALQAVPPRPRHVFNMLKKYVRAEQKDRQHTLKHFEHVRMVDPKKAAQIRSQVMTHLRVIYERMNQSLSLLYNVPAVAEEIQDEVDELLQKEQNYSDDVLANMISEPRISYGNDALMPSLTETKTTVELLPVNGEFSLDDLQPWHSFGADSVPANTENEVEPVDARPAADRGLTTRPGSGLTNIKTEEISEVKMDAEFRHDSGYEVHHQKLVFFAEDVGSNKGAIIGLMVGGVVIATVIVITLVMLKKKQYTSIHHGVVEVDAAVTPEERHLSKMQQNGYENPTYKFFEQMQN
Sequence of Butyrylcholinesterase (Rattus norvegicus) (Q9JKC1 as listed by the source): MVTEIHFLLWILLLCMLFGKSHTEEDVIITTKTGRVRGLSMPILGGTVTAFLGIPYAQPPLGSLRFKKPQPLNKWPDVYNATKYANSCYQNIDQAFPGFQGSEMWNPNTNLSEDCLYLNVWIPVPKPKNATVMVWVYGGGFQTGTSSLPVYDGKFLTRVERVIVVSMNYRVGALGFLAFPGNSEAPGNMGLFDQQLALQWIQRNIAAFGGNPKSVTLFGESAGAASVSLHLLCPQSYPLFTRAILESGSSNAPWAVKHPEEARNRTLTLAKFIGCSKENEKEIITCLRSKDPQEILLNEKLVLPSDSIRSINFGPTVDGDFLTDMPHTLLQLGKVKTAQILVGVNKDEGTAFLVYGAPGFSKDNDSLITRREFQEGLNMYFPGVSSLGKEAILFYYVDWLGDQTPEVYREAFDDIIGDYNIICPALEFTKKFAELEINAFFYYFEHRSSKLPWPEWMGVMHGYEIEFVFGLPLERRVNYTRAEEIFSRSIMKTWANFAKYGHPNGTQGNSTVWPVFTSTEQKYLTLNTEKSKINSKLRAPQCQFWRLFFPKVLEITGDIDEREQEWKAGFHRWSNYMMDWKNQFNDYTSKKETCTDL

Work on CCN(CC)Cc1ccc(/C=C/c2cnc(C)c(O)c2CO)cc1O yielded an inhibition [1] of 16.7% and a pIC50 (Acetylcholinesterase [2]) of 5.68.
For C#CCN(C)C(C)Cc1cccc(OC(=O)N(C)CCCCCC)c1 (single isomer, unassigned; (-)), the pIC50 (Acetylcholinesterase [3]) was 5.47.
For COc1ccc2[nH]cc(CCNC(=O)CN(CCC3CCN(Cc4ccccc4)CC3)C(=O)/C=C/c3ccc(O)c(OC)c3)c2c1, the pIC50 (Acetylcholinesterase [4]) was 7.51 and the pIC50 (Cholinesterase [5]) was 7.66.
CN(C)C(=O)Oc1ccccc1-c1nc2ccccc2s1 showed a pIC50 (Acetylcholinesterase [6]) of 4.68.
With C#CCN(C)C(C)Cc1cccc(OC(=O)N(C)CCCCCC)c1 (single isomer, unassigned; (+)) the pIC50 (Acetylcholinesterase [3]) was 5.70.
With c1ccc2c(NCc3ccc(-c4ccc(CNc5c6c(nc7ccccc57)CCCC6)cc4)cc3)c3c(nc2c1)CCCC3 the inhibition [7] was 75.5%, the pIC50 (Beta-secretase 1 [8]) was 5.56 and the pIC50 (Acetylcholinesterase [9]) was 8.44. The inhibition (Acetylcholinesterase [10]) was 61.8%, the pIC50 (Cholinesterase [11]) was 9.07 and the inhibition (Beta-secretase 1 [12]) was 89.7%.
Cc1cc(=O)oc2ccc(OC/C=C/CCn3cnc4c(N5CCCCC5)ncnc43)cc12 gave a pIC50 (Acetylcholinesterase [13]) of 4.92 and a pIC50 [14] of 5.17.
CC1=CC2Cc3nc4cc(Cl)ccc4c(N)c3C(C1)C2 (single isomer, unassigned; (+)) [HUPRINE Y] was tested, and the pIC50 (Acetylcholinesterase [15]) was 7.44.
For O=C(c1ccc(OCCCc2cnc[nH]2)cc1)C1CC1 [CIPROXIFAN], the pIC50 (Cholinesterase [16]) was 4.11 and the pIC50 (Acetylcholinesterase [17]) was 4.06.
In the case of C#CCN(C)C(C)Cc1cccc(OC(=O)N(C)CCCCCC)c1 (racemic), the pIC50 (Cholinesterase [18]) was 6.14.
In the case of C#CCN[C@@H]1CCc2ccc(OC(=O)N(C)CC)cc21 [LADOSTIGIL], the inhibition in vivo at 26 mg/kg (Rattus norvegicus [19]) was 71% and the inhibition in vivo at 26 mg/kg (Rattus norvegicus [20]) was 66%.
O=C(/C=C/c1ccc(OCc2ccccc2)cc1)NCCNc1c2c(nc3ccccc13)CCCC2 gave a pIC50 (Acetylcholinesterase [21]) of 7.53, a pIC50 (Cholinesterase [22]) of 7.06 and a Selectivity Index (Homo sapiens) of 0.7. It also gave a pIC50 (Cholinesterase [23]) of 7.37 and a pIC50 (Acetylcholinesterase [24]) of 7.22.

Reference: ChEMBL document CHEMBL4342404, “Anti-cholinesterase hybrids as multi-target-directed ligands against Alzheimer's disease (1998-2018)” (Bioorg Med Chem, 2019)
